We go through one compound from patent US10898460B1, “Leishmania inhibitors” (University of South Florida, priority 2018, dated 2021).

The test concerns Leishmania donovani. In words: Bioassay against Leishmania donovani. It is filed as cell-based. The source says: Marine invertebrates from Antarctica have been investigated for their potential natural product chemistry. Often sessile, these organisms must develop chemical protective mechanisms to survive and defend themselves against predators. The biodiversity of these organisms is of particular interest due to the extremely low temperatures and the circumpolar current around the Antarctic continent serving as an ecological isolating shield. The chemodiversity that emanates from these organisms can be a significant source of chemistry to be further developed into new drugs. The chemical investigation of an undescribed Gersemia sp. Antarctic coral has led to the isolation of two different kinds of bioactive compounds. After lyophilization of the organism, two different extractions were performed: the first one used a methylene chloride: methanol (1:1) solvent mixture, and the second one used methylene chloride only as solvent in a Soxhlet extraction. […] One and two-dimensional nuclear magnetic resonance, mass spectrometry, X-ray crystallography, and circular dichroism were the methods performed to elucidate and confirm the structures. Furthermore, biological testing against Leishmania sp. and ESKAPE pathogens, Zika virus, Clostridium difficile, and HeLa cancer cells were performed.
Table 1 details the bioactivity of two Alcyopterosins and ACDL-21.

Take `Cc1cc2c(c3c1[C@H](CO[N+](=O)[O-])OC3=O)CC(C)(C)C2` [Alcyopterosin E (2), alcyopterosin E]: it took 3.1 µM to reach half-maximal inhibition (IC50).
